# In patent US20250230193A1, “CYCLIC COMPOUND HAVING SELECTIVE KRAS INHIBITORY EFFECT ON HRAS AND NRAS” (CHUGAI SEIYAKU KABUSHIKI KAISHA, priority 2022, published 2025):
# *1 amine or outer side, *2 acyl side, *3 side chain or, on linkers, in order; H or OH if unused. Where a SMILES comes first, the peptide text is derived from it. Bridges are numbered along the chain shown (N, C = ends). [ ]: non-standard residue; d: D form. The star is where a group is joined. hPhe(3,5-F2-4-CF3) = N[C@@H](CCc1cc(F)c(C(F)(F)F)c(F)c1)C(=O)O; X24 = O=C([C@H](Cc1ccc(C(F)(F)F)cc1)N(CCC(F)(F)F)[*:1])[*:2]; hPhe(3-Cl-4-CF3) = N[C@@H](CCc1ccc(C(F)(F)F)c(Cl)c1)C(=O)O; NPrPhe(4-CF3) = CCCN[C@@H](Cc1ccc(C(F)(F)F)cc1)C(=O)O; NMeGly(cPent) = CN[C@H](C(=O)O)C1CCCC1; X9 = C[C@@](N[*:1])(C(=O)[*:2])C1CC1; NEtPhe = CCN[C@@H](Cc1ccccc1)C(=O)O; NMeD = CN[C@@H](CC(=O)O)C(=O)O; NMeL = CN[C@@H](CC(C)C)C(=O)O; αMeV = CC(C)[C@](C)(N)C(=O)O; Morpholide = C1CN(*)CCO1; NMeA = CN[C@@H](C)C(=O)O; Ac5c = NC1(C(=O)O)CCCC1; Aze = O=C(O)[C@@H]1CCN1; Sar = CNCC(=O)O
# Columns and labels:
# [1] = molecular target: GDP-bound HRAS wild-type protein (Homo sapiens, UniProt P01112); experiment: Binding to HRAS by surface plasmon resonance (SPR), Single Cycle Kinetics
# [2] = molecular target: GDP-bound NRAS wild-type protein (Homo sapiens, UniProt P01111); experiment: Binding to NRAS by surface plasmon resonance (SPR), Single Cycle Kinetics
# Sequence of GDP-bound NRAS wild-type protein (P01111 whole entry): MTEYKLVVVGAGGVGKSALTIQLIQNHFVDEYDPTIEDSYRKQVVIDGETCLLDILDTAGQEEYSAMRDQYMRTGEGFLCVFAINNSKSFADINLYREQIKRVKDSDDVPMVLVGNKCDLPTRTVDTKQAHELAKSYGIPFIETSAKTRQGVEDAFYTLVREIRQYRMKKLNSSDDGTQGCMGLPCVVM
# Sequence of GDP-bound HRAS wild-type protein (P01112 whole entry): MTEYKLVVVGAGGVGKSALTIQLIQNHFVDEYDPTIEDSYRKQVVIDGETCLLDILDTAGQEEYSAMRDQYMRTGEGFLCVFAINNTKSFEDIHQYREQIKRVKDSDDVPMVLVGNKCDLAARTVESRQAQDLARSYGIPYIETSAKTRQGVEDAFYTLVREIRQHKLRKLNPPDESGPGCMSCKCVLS
structure (smiles),measurement,setting,value
CC[C@H](C)[C@@H]1NC(=O)[C@H](CC)N(C)C(=O)C[C@@H](C(=O)N(C)C)N(C)C(=O)[C@H](C2CCCC2)N(C)C(=O)C2(CCC2)NC(=O)[C@@H]2CCCCN2C(=O)[C@H](CCc2cc(F)c(C(F)(F)F)c(F)c2)NC(=O)CN(C)C(=O)[C@H](Cc2ccc(C(F)(F)F)cc2)N2CCCC[C@@H](C2=O)N(C)C(=O)CN(C)C1=O [PP0658],HRAS/KRAS (ratio of KD value with respect to GDP-bound HRAS wild-type protein to KD value with respect to KRAS),[1]; SPR,B (a compound having 3 or more and less than 10 is denoted as B)
same,NRAS/KRAS (ratio of KD value with respect to GDP-bound NRAS wild-type protein to KD value with respect to KRAS),[2]; SPR,C (A compound having a KD ratio of 0.1 or more and less than 3 is denoted as C)
CCC(CC)[C@H]1C(=O)N(C)[C@H](C(=O)N(C)C)CC(=O)N(C)[C@@H](COC)C(=O)N[C@@H]([C@@H](C)CC)C(=O)N(C)CC(=O)N(C)[C@H]2C/C=C\CCN(C2=O)[C@@H](CC2CCC(F)(F)CC2)C(=O)N(C)CC(=O)N[C@@H](CCc2ccc(C(F)(F)F)c(OC)c2)C(=O)N2C[C@@H](C)C[C@H]2C(=O)NC2(CC(C)(C)C2)C(=O)N1C [PP2442],HRAS/KRAS (ratio of KD value with respect to HRAS to KD value with respect to KRAS),"[1]; SPR, GDP-bound HRAS wild-type vs GDP-bound KRAS wild-type",A (a compound having 10 or more and less than 20 is denoted as A)
same,NRAS/KRAS (ratio of KD value with respect to NRAS to KD value with respect to KRAS),"[2]; SPR, GDP-bound NRAS wild-type vs GDP-bound KRAS wild-type",A (a compound having 10 or more and less than 20 is denoted as A)
"CCCN1C(=O)CN(C)C(=O)[C@@H]2CCN2C(=O)[C@H]([C@@H](C)CC)NC(=O)[C@H](CC(C)C)N(C)C(=O)C[C@@H](C(=O)N2CCOCC2)N(C)C(=O)[C@H](C2CCCC2)N(C)C(=O)[C@](C)(C2CC2)NC(=O)[C@@H]2CCCN2C(=O)[C@H](CCc2cc(F)c(C(F)(F)F)c(F)c2)NC(=O)CN(C)C(=O)[C@@H]1Cc1ccc(C(F)(F)F)cc1 [PP0772] ([NMeL]I[Aze][Sar][NPrPhe(4-CF3)][Sar][hPhe(3,5-F2-4-CF3)]P[X9][NMeGly(cPent)][NMeD]-Morpholide; lactam N-11)",HRAS/KRAS (ratio of KD value with respect to GDP-bound HRAS wild-type protein to KD value with respect to KRAS),[1]; SPR,B (a compound having 3 or more and less than 10 is denoted as B)
same,NRAS/KRAS (ratio of KD value with respect to GDP-bound NRAS wild-type protein to KD value with respect to KRAS),[2]; SPR,B (a compound having 3 or more and less than 10 is denoted as B)
CC[C@H](C)[C@@H]1NC(=O)[C@H](CC(C)C)N(C)C(=O)C[C@@H](C(=O)N2CCOCC2)N(C)C(=O)[C@H](C2CCCC2)N(C)C(=O)C2(CCCC2)NC(=O)[C@@H]2CCCN2C(=O)[C@H](CCc2ccc(C(F)(F)F)c(Cl)c2)NC(=O)CN(C)C(=O)[C@H](Cc2ccc(C(F)(F)F)cc2)N(CCC(F)(F)F)C(=O)[C@@H]2CCN2C(=O)[C@H](C)N(C)C1=O [PP0117] ([NMeL]I[NMeA][Aze][X24][Sar][hPhe(3-Cl-4-CF3)]P[Ac5c][NMeGly(cPent)][NMeD]-Morpholide; lactam N-11),HRAS/KRAS (ratio of KD for GDP-bound HRAS wild-type to KD for KRAS),[1]; SPR,B (a compound having 3 or more and less than 10 is denoted as B)
same,NRAS/KRAS (ratio of KD for GDP-bound NRAS wild-type to KD for KRAS),[2]; SPR,B (a compound having 3 or more and less than 10 is denoted as B)
CC[C@H](C)[C@@H]1NC(=O)[C@H](CC(C)C)N(C)C(=O)C[C@@H](C(=O)N2CCOCC2)N(C)C(=O)[C@H](C2CCCC2)N(C)C(=O)C2(CCCC2)NC(=O)[C@@H]2CCCN2C(=O)[C@H](CCc2ccc(C(F)(F)F)c(Cl)c2)NC(=O)CN(C)C(=O)[C@H](Cc2ccccc2)N(CC)C(=O)[C@@H]2CCN2C(=O)[C@H](C)N(C)C1=O [PP0215] ([NMeL]I[NMeA][Aze][NEtPhe][Sar][hPhe(3-Cl-4-CF3)]P[Ac5c][NMeGly(cPent)][NMeD]-Morpholide; lactam N-11),HRAS/KRAS (ratio of KD for GDP-bound HRAS wild-type to KD for KRAS),[1]; SPR,C (A compound having a KD ratio of 0.1 or more and less than 3 is denoted as C)
same,NRAS/KRAS (ratio of KD for GDP-bound NRAS wild-type to KD for KRAS),[2]; SPR,C (A compound having a KD ratio of 0.1 or more and less than 3 is denoted as C)
"CCCN1C(=O)CN(C)C(=O)CN(C)C(=O)[C@H]([C@@H](C)CC)NC(=O)[C@H](CC(C)C)N(C)C(=O)C[C@@H](C(=O)N(C)C)N(C)C(=O)[C@H](C2CCCC2)N(C)C(=O)[C@](C)(C(C)C)NC(=O)[C@@H]2CCCN2C(=O)[C@H](CCc2cc(F)c(C(F)(F)F)c(F)c2)NC(=O)CN(C)C(=O)[C@@H]1Cc1ccc(C(F)(F)F)cc1 [PP0735] ([NMeL]I[Sar][Sar][NPrPhe(4-CF3)][Sar][hPhe(3,5-F2-4-CF3)]P[αMeV][NMeGly(cPent)][NMeD]-NMe2; lactam N-11)",HRAS/KRAS (ratio of KD value with respect to GDP-bound HRAS wild-type protein to KD value with respect to KRAS),[1]; SPR,C (A compound having a KD ratio of 0.1 or more and less than 3 is denoted as C)
same,NRAS/KRAS (ratio of KD value with respect to GDP-bound NRAS wild-type protein to KD value with respect to KRAS),[2]; SPR,B (a compound having 3 or more and less than 10 is denoted as B)
CCC[C@H]1C(=O)N[C@@H](CC(C)C)C(=O)N2C[C@@H](OC)C[C@H]2C(=O)N(C)[C@H]2C/C=C\CCN(C2=O)[C@@H](Cc2ccc(C)cc2)C(=O)N(C)CC(=O)N[C@@H](CCc2cc(F)c(C(F)(F)F)c(F)c2)C(=O)N2C[C@H](OCC)C[C@H]2C(=O)NC2(CCC2)C(=O)N(C)[C@@H](C2CCCC2)C(=O)N(C)[C@H](C(=O)N(C)C)CC(=O)N1C [PP2547],HRAS/KRAS (ratio of KD value with respect to GDP-bound HRAS wild-type protein to KD value with respect to KRAS),[1]; class symbols,B (a compound having 3 or more and less than 10 is denoted as B)
same,NRAS/KRAS (ratio of KD value with respect to GDP-bound NRAS wild-type protein to KD value with respect to KRAS),[2]; class symbols,A (a compound having 10 or more and less than 20 is denoted as A)
